How the values were obtained:
[1] = tested on: HCT116 Human Colon Cancer Cells; assay: Colony formation assay, HCT116; assay type: cell-based; conditions: 50% inhibition of colony formation; 72 hours with drug; colonies counted after 7 days
Protocol: (§1) Cancer cells were plated in 60 mm Petri dishes containing 2.7 ml of medium (modified McCoy's 5a medium containing 10% fetal bovine serum and 100 units/ml penicillin and 100 ug/ml streptomycin). The cells were incubated in a CO2 incubator at 37 degree C. for 5 hours for attachment to the bottom of Petri dishes. Drugs were made up fresh in medium at ten times the final concentration, and then 0.3 ml of this stock solution was added to the 2.7 ml of medium in the dish. The cells were then incubated with drugs for 72 hours at 37 degree C. At the end of incubation the drug-containing media were decanted, the dishes were rinsed with 4 ml of Hank's Balance Salt Solution (HBSS), 5 ml of fresh medium was added, and the dishes were returned to the incubator for colony formation. The cell colonies were counted using colony counter after incubation for 7 days (HCT116 cell line), 14 days (VM46 cell line) and 15 days (H23 cell line). Cell survival (%) was calculated from 3 repeated dishes for each drug concentration and the mean values of IC50 (the drug concentration producing 50% inhibition of colony formation) were determined for each tested compound.

[2] = tested on: VM46 Human Colon Cancer Cells Overexpressing Multi-drug Resistant Gene 1; assay: Colony formation assay, VM46; assay type: cell-based; conditions: 50% inhibition of colony formation; 72 hours with drug; colonies counted after 14 days
Protocol: as §1

[3] = tested on: H23 Human Non-small Cell Lung Cancer Cells; assay: Colony formation assay, H23; assay type: cell-based; conditions: 50% inhibition of colony formation; 72 hours with drug; colonies counted after 15 days
Protocol: as §1

[4] = Toxicity study (MTD) in normal mice; assay type: in vivo, C3H female normal mice; conditions: single i.p. injection, mice checked daily for 40 days (MTD40)
Protocol: In the toxicity studies, 2 C3H female normal mice were dosed with compounds N1-4 (N1, N2, N3, and N4) at low and moderate doses of 40 and 100 mg/kg. Since no severe and irreversible toxicity occurred at these doses, a new pair of animals was initiated at 120 mg/kg which was 1.2 times higher than 100 mg/kg. Sequential dosages (ie. 2 mice for each drug dose) were increased by a factor of 1.2-1.5 until irreversible toxicity was observed (animal became emaciated; animal underwent rapid weight loss (cachexia) (20%) within several (2-4) days)(euthanasia was required) occurred. Then another pair of animals was initiated at the highest nontoxic dosage, and successive dosages were increased by a factor of 1.15. […] Six mice were dosed at each dosage. If no irreversible toxicity occurred at the lower dosage and at least one with irreversible toxicity at the higher dose, then the lower dose was considered to be the MTD. HCL salts of N1-4 were formulated in a solution of ethanol:Cremophor EL:0.2M NaAc:saline (5:5:10:80) with a final pH of 5.0-5.5. N1-4 bases were formulated in a solution of ethanol: Cremophor EL:saline (5:5:90). All compounds were administered to C3H female normal mice by a single i.p. injection at a volume of 0.5 ml/20 g mouse. Drug toxicity was evaluated on mice checked daily for 40 days. The toxicity parameters reported were the MTD40. […] At the end of experiment, all mice were euthanized.

Rat MTD study = assay type: in vivo, Sprague-Dawley rats
Protocol: In the rat MTD study, Sprague-Dawley rats were dosed with 801 HCl at a concentration of 6 mg/ml via intravenous infusion or slow intravenous injection. The MTD of 801 in normal rats was 120 mg/kg/day. In the 7-day repeating dose study, the rats were administered with […] via BID slow IV injection for 7 days.

[5] = tested on: COLO205 human colon cancer xenograft; assay: Subcutaneous COLO205 human colon cancer xenograft model; assay type: in vivo, Mus Musculus (BALB/c nude); conditions: 125 mg/kg i.p. q3d×3, day 29
Protocol: Each mouse was inoculated subcutaneously with 5×10^6 COLO205 tumor cells in 0.1 ml PBS for tumor development. Treatments were started when the tumor volume reached 120 mm^3. […] Body weight and tumor volume were measured twice a week.

[6] = tested on: HCT116 human colon cancer xenograft; assay: Subcutaneous HCT116 human colon cancer xenograft model; assay type: in vivo, Mus Musculus (BALB/c nude)
Protocol: Each mouse was inoculated subcutaneously with 5×10^6 HCT116 tumor cells in 0.1 ml PBS for tumor development. Treatments were started when the tumor volume reached 100 mm^3. […] Body weight and tumor volume were measured twice a week.

[7] = Toxicity studies (MTD) in Cynomolgus monkeys; assay type: in vivo
[8] = tested on: K562 human chronic myeloid leukemia xenograft; assay: Subcutaneous K562 human chronic myeloid leukemia xenograft model; conditions: 300 mg/kg ip Days 8, 11, 14

Question: With CCc1c2c(nc3ccc(O)c(CN(C)C)c13)-c1cc3c(c(=O)n1C2)COC(=O)C3(CC)OC(=O)COc1ccc(C(=O)OC2c3cc4c(cc3C(c3cc(OC)c(OC)c(OC)c3)C3C(=O)OCC23)OCO4)cc1 (stereo not drawn) [Compound N4] as the compound, how does the IC50 [1] read?
Answer: 6.6 nM

Question: What about the IC50 [2] of the same compound?
Answer: 5 nM

Question: What about the IC50 [3] of the same compound?
Answer: 12.9 nM

Question: And the “MTD Values” [4]?
Answer: 250 mg/kg

Question: For CCc1c2c(nc3ccc(OC(=O)N4CCC(N5CCCCC5)CC4)cc13)-c1cc3c(c(=O)n1C2)COC(=O)C3(CC)OC(=O)COc1ccc(C(=O)OC2c3cc4c(cc3C(c3cc(OC)c(OC)c(OC)c3)C3C(=O)OCC23)OCO4)cc1.Cl (stereo not drawn) [N3 HCL Salt], which “MTD Values” [4] is on record?
Answer: 144 mg/kg

Question: For CCC1(OC(=O)COc2ccc(C(=O)OC3c4cc5c(cc4C(c4cc(OC)c(OC)c(OC)c4)C4C(=O)OCC34)OCO5)cc2)C(=O)OCc2c1cc1n(c2=O)Cc2cc3c(CN(C)C)c(O)ccc3nc2-1.Cl (stereo not drawn) [N1 HCL Salt], which “MTD Values” [4] is on record?
Answer: 120 mg/kg

Question: With CC[C@@]1(OC(=O)COc2ccc(C(=O)O[C@H]3c4cc5c(cc4[C@@H](c4cc(OC)c(OC)c(OC)c4)[C@H]4C(=O)OC[C@@H]43)OCO5)cc2)C(=O)OCc2c1cc1n(c2=O)Cc2cc3cc(OC(=O)N4CCC(N5CCCCC5)CC4)ccc3nc2-1 [N2 (801)] as the compound, how does the IC50 [1] read?
Answer: > 500 nM

Question: What about the IC50 [2] of the same compound?
Answer: ~520 nM

Question: What about the IC50 [3] of the same compound?
Answer: 462 nM

Question: What about the “MTD Values” [4] of the same compound?
Answer: 300 mg/kg

Question: And the “MTD for repeating dosing” value (Rat MTD study; 7-day repeating dose, BID slow IV injection)?
Answer: 60 mg/kg/day

Question: What does the source list for CC[C@@]1(OC(=O)COc2ccc(C(=O)O[C@H]3c4cc5c(cc4[C@@H](c4cc(OC)c(OC)c(OC)c4)[C@H]4C(=O)OC[C@@H]43)OCO5)cc2)C(=O)OCc2c1cc1n(c2=O)Cc2cc3cc(OC(=O)N4CCC(N5CCCCC5)CC4)ccc3nc2-1.Cl [Compound 801-HCl]?
Answer: MTD Values [4]: 300 mg/kg; TGI [5]: 70%; TGI ([6]; 125 mg/kg i.p. q3d×3, day 29): 93%; MTD for repeating dosing ([7]; 5-day repeat dose, intravenous infusion): 30 mg/kg/day; MTD ([7]; intravenous infusion twice daily with a 5-hour interval): 60 mg/kg/day; MTD (Rat MTD study; 6 mg/ml via intravenous infusion or slow intravenous injection, normal rats): 120 mg/kg/day; TGI (Day 25) [8]: 98%; Mean Tumor Volume ([8]; Day 8 after tumor inoculation): 159 ± 6 mm^3; Mean Tumor Volume ([8]; Day 11): 221 ± 27 mm^3; Mean Tumor Volume ([8]; Day 14): 164 ± 6 mm^3; Mean Tumor Volume ([8]; Day 18): 47 ± 7 mm^3; Mean Tumor Volume ([8]; Day 21): 39 ± 6 mm^3; Mean Tumor Volume ([8]; Day 25): 74 ± 12 mm^3; Mean Tumor Volume ([8]; Day 25, listed as 801-HCI): 74 ± 2 mm^3; Mean Tumor Volume ([8]; Day 28): 95 ± 19 mm^3; CR ratio (ratio of complete regression) ([8]; complete remission by Day 21): 3/8; maximum BW loss ([8]; next day after the 2nd dosing): 7.7%

Question: For CCc1c2c(nc3ccc(OC(=O)N4CCC(N5CCCCC5)CC4)cc13)-c1cc3c(c(=O)n1C2)COC(=O)[C@]3(O)CC [Irinotecan, reference compound], which body weight loss ([6]; during the treatment period, doses of the study groups) is on record?
Answer: 8%

Question: Which “MTD Values” [4] does the source give for CCc1c2c(nc3ccc(O)c(CN(C)C)c13)-c1cc3c(c(=O)n1C2)COC(=O)C3(CC)OC(=O)COc1ccc(C(=O)OC2c3cc4c(cc3C(c3cc(OC)c(OC)c(OC)c3)C3C(=O)OCC23)OCO4)cc1.Cl (stereo not drawn) [N4 HCL Salt] here?
Answer: 180 mg/kg

Reference: patent US11186594B2, “Podophyllotoxin derivatives and their use” (California Pacific Medical Center, priority 2015, dated 2021)
